# Experimental data from PubChem BioAssay AID1918956 (Molecular Pharmacology Branch, DTP, NCI, 2023).
# pIC50: −log10 of the molar value.
# System: OVCAR-5 complex spheroids, viability
# Experiment: Anticancer human tumor OVCAR-5 cell line growth inhibition;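 also: spheroids exposed to agents for seven days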;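 as to viability, T/C: 100% = DMSO vehicle control wells viability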
# Conditions: for pIC50: curve of first compound; for viability, T/C: stronger effect = lower value
# Procedure, shortened: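 Multicellular complex spheroids of tumor cells with human endothelial cells (HUVEC) and mesenchymal stem cells; the LSD1 inhibitor iadademstat was combined with standard-of-care or investigational agents. Top concentration at or near clinical Cmax, half-log dilutions; final DMSO ≤0.25%.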
# [1] = second compound 0.1 µM, first compound 0.0316 µM
# [2] = second compound 0.1 µM, first compound 0.1 µM
# [3] = second compound 0.316 µM, first compound 0.0316 µM
# [4] = second compound 0.316 µM, first compound 0.1 µM
# [5] = second compound 1 µM, first compound 0.0316 µM
# [6] = second compound 1 µM, first compound 0.1 µM
# [7] = second compound 3.16 µM, first compound 0.0316 µM
# [8] = second compound 3.16 µM, first compound 0.1 µM
# [9] = second compound 10 µM, first compound 0.0316 µM
# [10] = second compound 10 µM, first compound 0.1 µM
smiles,measurement,setting,value
CC1(C)CCC(CN2CCN(c3ccc(C(=O)NS(=O)(=O)c4ccc(NCC5CCOCC5)c([N+](=O)[O-])c4)c(Oc4cnc5[nH]ccc5c4)c3)CC2)=C(c2ccc(Cl)cc2)C1 + NC1CC1c1ccc(-c2cccc(O)c2)cc1,pIC50,second compound 0.1 µM,5.13
same,pIC50,second compound 0.316 µM,5.11
same,pIC50,second compound 1 µM,5.13
same,pIC50,second compound 3.16 µM,5.12
same,pIC50,second compound 10 µM,5.12
same,"viability, T/C",[1],99.4%
same,"viability, T/C",[2],97.3%
same,"viability, T/C","second compound 0.1 µM, first compound 0.316 µM",110%
same,"viability, T/C","second compound 0.1 µM, first compound 1 µM",97.2%
same,"viability, T/C","second compound 0.1 µM, first compound 3.16 µM",103%
same,"viability, T/C","second compound 0.1 µM, first compound 10 µM",32.1%
same,"viability, T/C",[3],107%
same,"viability, T/C",[4],112%
same,"viability, T/C","second compound 0.316 µM, first compound 0.316 µM",106%
same,"viability, T/C","second compound 0.316 µM, first compound 1 µM",101%
same,"viability, T/C","second compound 0.316 µM, first compound 3.16 µM",100%
same,"viability, T/C","second compound 0.316 µM, first compound 10 µM",35.6%
same,"viability, T/C",[5],110%
same,"viability, T/C",[6],92.4%
same,"viability, T/C","second compound 1 µM, first compound 0.316 µM",93.3%
same,"viability, T/C","second compound 1 µM, first compound 1 µM",105%
same,"viability, T/C","second compound 1 µM, first compound 3.16 µM",94.4%
same,"viability, T/C","second compound 1 µM, first compound 10 µM",33.7%
same,"viability, T/C",[7],103%
same,"viability, T/C",[8],86.9%
same,"viability, T/C","second compound 3.16 µM, first compound 0.316 µM",88.5%
same,"viability, T/C","second compound 3.16 µM, first compound 1 µM",106%
same,"viability, T/C","second compound 3.16 µM, first compound 3.16 µM",96%
same,"viability, T/C","second compound 3.16 µM, first compound 10 µM",35.7%
same,"viability, T/C",[9],89.3%
same,"viability, T/C",[10],85%
same,"viability, T/C","second compound 10 µM, first compound 0.316 µM",85.9%
same,"viability, T/C","second compound 10 µM, first compound 1 µM",86%
same,"viability, T/C","second compound 10 µM, first compound 3.16 µM",85%
same,"viability, T/C","second compound 10 µM, first compound 10 µM",38.9%
Cn1ncnc1C1c2n[nH]c(=O)c3cc(F)cc(c23)NC1c1ccc(F)cc1 (stereo not given) + NC1CC1c1ccc(-c2cccc(O)c2)cc1,pIC50,second compound 0.1 µM,< 7.00
same,pIC50,second compound 0.316 µM,< 7.00
same,pIC50,second compound 1 µM,< 7.00
same,pIC50,second compound 3.16 µM,< 7.00
same,pIC50,second compound 10 µM,< 7.00
same,"viability, T/C","second compound 0.1 µM, first compound 0.000316 µM",101%
same,"viability, T/C","second compound 0.1 µM, first compound 0.001 µM",94.1%
same,"viability, T/C","second compound 0.1 µM, first compound 0.00316 µM",85.4%
same,"viability, T/C","second compound 0.1 µM, first compound 0.01 µM",95.3%
same,"viability, T/C",[1],83.2%
same,"viability, T/C",[2],77.8%
same,"viability, T/C","second compound 0.316 µM, first compound 0.000316 µM",94.6%
same,"viability, T/C","second compound 0.316 µM, first compound 0.001 µM",99.3%
same,"viability, T/C","second compound 0.316 µM, first compound 0.00316 µM",95.1%
same,"viability, T/C","second compound 0.316 µM, first compound 0.01 µM",89.9%
same,"viability, T/C",[3],93%
same,"viability, T/C",[4],91.9%
same,"viability, T/C","second compound 1 µM, first compound 0.000316 µM",81.3%
same,"viability, T/C","second compound 1 µM, first compound 0.001 µM",91.4%
same,"viability, T/C","second compound 1 µM, first compound 0.00316 µM",89.7%
same,"viability, T/C","second compound 1 µM, first compound 0.01 µM",79.5%
same,"viability, T/C",[5],92.8%
same,"viability, T/C",[6],85.6%
same,"viability, T/C","second compound 3.16 µM, first compound 0.000316 µM",88.4%
same,"viability, T/C","second compound 3.16 µM, first compound 0.001 µM",94.2%
same,"viability, T/C","second compound 3.16 µM, first compound 0.00316 µM",88.1%
same,"viability, T/C","second compound 3.16 µM, first compound 0.01 µM",81.9%
same,"viability, T/C",[7],74.3%
same,"viability, T/C",[8],73.2%
same,"viability, T/C","second compound 10 µM, first compound 0.000316 µM",82.6%
same,"viability, T/C","second compound 10 µM, first compound 0.001 µM",96.6%
same,"viability, T/C","second compound 10 µM, first compound 0.00316 µM",85.5%
same,"viability, T/C","second compound 10 µM, first compound 0.01 µM",78.2%
same,"viability, T/C",[9],72.6%
same,"viability, T/C",[10],80.3%
NS(=O)(=O)OCC1CC(n2ccc3c(NC4CCc5ccccc54)ncnc32)CC1O (stereo not given) + NC1CC1c1ccc(-c2cccc(O)c2)cc1,pIC50,second compound 0.1 µM,6.73
same,pIC50,second compound 0.316 µM,6.75
same,pIC50,second compound 1 µM,6.84
same,pIC50,second compound 3.16 µM,6.81
same,pIC50,second compound 10 µM,7.08
same,"viability, T/C","second compound 0.1 µM, first compound 0.00949 µM",145%
same,"viability, T/C","second compound 0.1 µM, first compound 0.03 µM",133%
same,"viability, T/C","second compound 0.1 µM, first compound 0.0949 µM",84.2%
same,"viability, T/C","second compound 0.1 µM, first compound 0.3 µM",25.6%
same,"viability, T/C","second compound 0.1 µM, first compound 0.949 µM",8.27%
same,"viability, T/C","second compound 0.1 µM, first compound 3 µM",5.16%
same,"viability, T/C","second compound 0.316 µM, first compound 0.00949 µM",152%
same,"viability, T/C","second compound 0.316 µM, first compound 0.03 µM",149%
same,"viability, T/C","second compound 0.316 µM, first compound 0.0949 µM",79.6%
same,"viability, T/C","second compound 0.316 µM, first compound 0.3 µM",26.9%
same,"viability, T/C","second compound 0.316 µM, first compound 0.949 µM",22.2%
same,"viability, T/C","second compound 0.316 µM, first compound 3 µM",4.93%
same,"viability, T/C","second compound 1 µM, first compound 0.00949 µM",117%
same,"viability, T/C","second compound 1 µM, first compound 0.03 µM",145%
same,"viability, T/C","second compound 1 µM, first compound 0.0949 µM",72%
same,"viability, T/C","second compound 1 µM, first compound 0.3 µM",25%
same,"viability, T/C","second compound 1 µM, first compound 0.949 µM",7.9%
same,"viability, T/C","second compound 1 µM, first compound 3 µM",4.8%
same,"viability, T/C","second compound 3.16 µM, first compound 0.00949 µM",141%
same,"viability, T/C","second compound 3.16 µM, first compound 0.03 µM",126%
same,"viability, T/C","second compound 3.16 µM, first compound 0.0949 µM",69.7%
same,"viability, T/C","second compound 3.16 µM, first compound 0.3 µM",23.8%
same,"viability, T/C","second compound 3.16 µM, first compound 0.949 µM",7.78%
same,"viability, T/C","second compound 3.16 µM, first compound 3 µM",4.11%
same,"viability, T/C","second compound 10 µM, first compound 0.00949 µM",131%
same,"viability, T/C","second compound 10 µM, first compound 0.03 µM",101%
same,"viability, T/C","second compound 10 µM, first compound 0.0949 µM",42.7%
same,"viability, T/C","second compound 10 µM, first compound 0.3 µM",16.2%
same,"viability, T/C","second compound 10 µM, first compound 0.949 µM",6.76%
same,"viability, T/C","second compound 10 µM, first compound 3 µM",4.61%
